Measured values taken from patent EP0375414B1, “Substituted guanidine and amidine compounds, their production and fungicidal use” (DowElanco, priority 1988, dated 1990).

Columns and labels:
Host Plants = assay: Phytotoxicity to host plants in the in vivo screen; conditions: 400 ppm sprayed to run off, host plants of the in vivo screen
Method: For each compound 3 replicate plants per pathogen at the 1 leaf stage are sprayed to run off. The plants are allowed to dry at room temperature for 24 hours prior to inoculation.
Untreated control plants and plants sprayed with 10 percent acetone-water or water alone (as required) are included for each pathogen.
Barley cv. Golden Promise is used as the host plant. Seeds are sown 8 per 3 in. (7.5 cm) pot and allowed to germinate and the plants are treated when they are approximately 2 weeks old. Spores are blown onto the test plants from the stock plants, which are then incubated at 20°C, relative humidity 70 percent for 7 days. After a week symptoms are recorded. The percent infection is scored from 3 replicate plants and expressed as a percent of the infection on the acetone-water control plants. The percent control is then recorded.
Wheat cv. Tonic is used as the host plant. Seeds are sown 1 cm deep in 4 rows per plastic tray. The tray is 60 cm x 30 cm. Seedlings grown to the 1-2 leaf stage are then inoculated. Into 100 mL of distilled water is placed 0.05 g of uredospores with a melting agent. This solution is sprayed onto the seedlings leaving a fine coverage on the leaves. The plants are then incubated with 100 percent relative humidity at 15-20°C for 4 days.

Erysiphe graminis Hordei = assay: In vivo screen, Erysiphe graminis Hordei on barley; parameters: species or system Barley cv. Golden Promise; conditions: 400 ppm sprayed to run off, inoculated 24 hours later, barley at 1 leaf stage, scored after 7 days, percent control vs acetone-water control plants
Method: Barley cv. Golden Promise is used as the host plant. Seeds are sown 8 per 3 in. […] After a week symptoms are recorded. […] The percent control is then recorded.

Puccinia recondita = assay: In vivo screen, Puccinia recondita on wheat; parameters: species or system Wheat cv. Tonic; conditions: 400 ppm sprayed to run off, inoculated 24 hours later, wheat seedlings, incubated 4 days, percent control vs acetone-water control plants
Method: Wheat cv. Tonic is used as the host plant. […] The tray is 60 cm x 30 cm.
Percent control is then recorded.

Structure (SMILES): CC(=O)O.C[C@H]1[C@@H](c2ccc(C(C)(C)C)cc2)CCN1C1=NCCCN1 (relative stereo) [Example 1, Cis N-(tetrahydropyrimidin-2-yl)-2-methyl-3-(4-t-butylphenyl)pyrrolidinium acetate]
- Percent Phytotoxicity to Host Plants (Host Plants): 0%
- Percent Efficacy, Erysiphe graminis (Erysiphe graminis Hordei): 100%
- Percent Efficacy, Puccinia recondita (Puccinia recondita): 0%

Structure (SMILES): CC(=O)O.C[C@H]1[C@H](c2ccc(C(C)(C)C)cc2)CCN1C1=NCCCN1 (relative stereo) [Example 2, trans N-(tetrahydropyrimidin-2-yl)-2-methyl-3-(4-t-butylphenyl)pyrrolidine acetate]
- Percent Phytotoxicity to Host Plants (Host Plants): 0%
- Percent Efficacy, Erysiphe graminis (Erysiphe graminis Hordei): 83%
- Percent Efficacy, Puccinia recondita (Puccinia recondita): 0%

Structure (SMILES): C[C@H]1[C@@H](c2ccc(C(C)(C)C)cc2)CCN1C1=NCCCN1.Cl (relative stereo) [Example 3, Cis N-(tetrahydropyrimidin-2-yl)-2-methyl-3--(4-t-butylphenyl)pyrrolidinium chloride]
- Percent Efficacy, Erysiphe graminis (Erysiphe graminis Hordei): 14%
- Percent Efficacy, Puccinia recondita (Puccinia recondita): 100%

Structure (SMILES): C[C@H]1[C@H](c2ccc(C(C)(C)C)cc2)CCN1C1=NCCCN1.Cl (relative stereo) [Example 4, Trans N-(tetrahydropyrimidin-2-yl)-2-methyl,3-(4-t-butylphenyl)pyrrolidinium chloride]
- Percent Efficacy, Erysiphe graminis (Erysiphe graminis Hordei): 87%
- Percent Efficacy, Puccinia recondita (Puccinia recondita): 66%

Structure (SMILES): CC1CC(C)NC(N2CC[C@H](c3ccc(C(C)(C)C)cc3)[C@@H]2C)=N1.Cl (relative stereo) [Example 5, Cis N-(4,6-dimethyltetrahydropyrimidin-2-yl)-2-methyl-3-(4-t-butylphenyl)pyrrolidinium chloride]
- Percent Phytotoxicity to Host Plants (Host Plants): 0%
- Percent Efficacy, Erysiphe graminis (Erysiphe graminis Hordei): 52%
- Percent Efficacy, Puccinia recondita (Puccinia recondita): 100%

Structure (SMILES): CC1CC(C)NC(N2CC[C@@H](c3ccc(C(C)(C)C)cc3)[C@@H]2C)=N1.Cl (relative stereo) [Example 6, Trans N-(4,6-dimethyltetrahydropyrimidin-2-yl)-2-methyl-3-(4-t-butylphenyl)pyrrolidinium chloride]
- Percent Phytotoxicity to Host Plants (Host Plants): 0%
- Percent Efficacy, Erysiphe graminis (Erysiphe graminis Hordei): 100%
- Percent Efficacy, Puccinia recondita (Puccinia recondita): 0%

Structure (SMILES): CCCCCCCC[C@H]1CCN(C2=NCCCN2)[C@H]1C.Cl (relative stereo) [Example 7, Cis N-(tetrahydropyrimidin-2-yl)-2-methyl-3-octyl pyrrolidinium chloride]
- Percent Efficacy, Erysiphe graminis (Erysiphe graminis Hordei): 79%
- Percent Efficacy, Puccinia recondita (Puccinia recondita): 0%
